How the values were obtained:
[1] = system: Escherichia coli (ATCC 8739); assay: Protocol 1 kill curve / MIC, 1 hour at 37° C.; type: cell-based; conditions: 6.25 μg/ml, 10 mM sodium phosphate buffer
Experimental: (§1) This protocol is used to develop dose-response (kill) curves to calculate the minimal inhibitory concentration of an indolicidin (e.g., L-indolicidin (L-IND)) when formulated in a commercially available phosphate buffered saline (PBS) solution. In addition, for comparative purposes, kill curves are established for the following three commonly available commercial lens-care products containing different preservatives:
(§2) The stock solutions are diluted in a 2-fold fashion by transferring 1 ml of each stock solution to 1 ml of appropriate diluent in sterile glass tubes (100×13 mm). Twelve additional 2-fold dilutions are made by transferring 1 ml aliquots of each dilution to 1 ml diluent. The diluent for all commercial lens-care products is PBS. […]
(§3) Viable counts of the bacteria are performed by 10-fold serial dilutions in sterile PBS and by plating 0.1 ml aliquots on nutrient agar plates. […] The plates are incubated overnight at 37° C. and colonies are counted and recorded. […]
(§4) Survival is expressed as number of surviving bacteria (CFU/ml) for each dilution of the test article and control solutions. The lowest dose of the test article that results in complete kill of the test organism, compared to the non-exposed control, is determined to be the MIC value. […]

[2] = system: P. aeruginosa strain (ATCC 9027); assay: Protocol 1 kill curve / MIC, 1 hour at 37° C.; type: cell-based, Pseudomonas aeruginosa; conditions: 6.25 μg/ml, 10 mM sodium phosphate buffer
Experimental: as §1, §2, §3, §4

[3] = 4.97 mg dry powder
Experimental: 4.97 mg of L-IND #036752, stored at 4° C. in a desiccation) was weighed into a polypropylene microfuge and dissolved in 0.01% acetic acid.

[4] = Toxicity study, topical ocular administration
Experimental: The objective of this study was to determine if the treatment regimen proposed for the efficacy study of the defensin formulations caused target organ toxicity. This study is not intended to support application for research or marketing permits for products regulated by governmental agencies. The purpose of this study is to provide range-finding data is therefore, not within the scope of Good Laboratory Practice Guidelines.
Rabbits were treated four times on Day 1 at ˜1 hour intervals, and twice daily at ˜12 hour intervals administered on Days 2 through 4.
Dosing volumes were 0.1 mL/mouse (intravaginal), 0.1 mL/mouse (intraperitoneal), and 20 μL/rabbit. The study lasted 5 days, with day 1 the first day of dose administration.
The dose formulations were supplied in pyrogen-free saline.

CC[C@H](C)[C@H](N)C(=O)N[C@@H](CC(C)C)C(=O)N1CCC[C@H]1C(=O)N[C@@H](Cc1c[nH]c2ccccc12)C(=O)N[C@@H](CCCCN)C(=O)N[C@@H](Cc1c[nH]c2ccccc12)C(=O)N1CCC[C@H]1C(=O)N[C@@H](Cc1c[nH]c2ccccc12)C(=O)N[C@@H](Cc1c[nH]c2ccccc12)C(=O)N1CCC[C@H]1C(=O)N[C@@H](Cc1c[nH]c2ccccc12)C(=O)N[C@@H](CCCNC(=N)N)C(=O)N[C@@H](CCCNC(=N)N)C(N)=O [L-indolicidin, H2N-ILPWKWPWWPWRR-CONH2]
survival [1]: 15%
survival [2]: 59%
Solubility in 0.01% acetic acid [3]: went into solution immediately
deaths or clinical signs of toxicity ([4]; 10, 100 or 1000 μg/mL, BPN-A-amide 30, 300 or 3000 μg/mL): No deaths or biologically significant clinical signs of toxicity
toxic changes in rabbit eyes (histology) ([4]; 20 μL/rabbit at 10, 100 or 1000 μg/mL, BPN-A-amide at 30, 300 or 3000 μ/mL): No toxic changes

Source: patent US6482799B1, “Self-preserving multipurpose ophthalmic solutions incorporating a polypeptide antimicrobial” (The Regents of the University of California, priority 1999, dated 2002)
